Laboratory results reported in patent publication US20180256616A1, “Compounds, Compositions and Methods for Prevention or Treatment of Liver and Lipid-Related Conditions” (Sivanaray, Inc., priority 2015, published 2018).

What was measured:
[1] = system: HFD-fed rats injected with streptozotocin (STZ) to induce type 2 diabetes (T2DM); assay: Study 3 (BVISIV Study): HFD plus STZ type 2 diabetes rats, 200 mg/kg/day; assay type: in vivo
[2] = has been reported; model of accelerated aging; cited from earlier work

With `O=C[C@H](O)[C@@H](O)[C@@H](O)[C@H](O)C(=O)O` [BVISIV 4, Galacturonic Acid] as the compound, how does the “lowering of glucose serum levels vs Group 2” value ([1]; end of 6 weeks) read?
The value was “most effective”.

For `O=C[C@H](O)[C@@H](O)[C@@H](O)[C@H](O)CO` [BVISIV 5, Galactose], which “aging effect (cognitive and motor skills)” value [2] is on record?
Its value is “deterioration of cognitive and motor skills”.

And the “reduction of serum ALT levels” value ([1]; HFD/T2DM rats)?
Its value is “effective”.

What about the “reduction of serum LDL cholesterol levels” value ([1]; HFD/T2DM rats) of the same compound?
The value was “effective”.

What about the “reduction of serum triglyceride levels” value ([1]; HFD/T2DM rats) of the same compound?
Its value is “effective”.

Which “comparative performance among formulations (triglycerides, LDL cholesterol, ALT)” value ([1]; HFD/T2DM rats) does the source give for `O=C[C@@H](O)[C@H](O)[C@H](O)CO` [BVISIV 6, Arabinose] here?
The value was “did not perform as well as the other formulations”.
